Data as given in US20190353647A1, “NOVEL REAL-TIME MULTIPLEXED, MULTI-COLOR BIOLUMINESCENCE RESONANCE ENERGY TRANSFER ASSAY, APPARATUS, AND USES THEREOF” (Universite de Bordeaux, priority 2016, published 2019).

Tests used:
TRPV3 = molecular target: T1, TRPV3 (Homo sapiens, UniProt Q8NET8); assay: Three-color spectral BRET, Luc-TRPV3/aquamarine-CaM component in mixed HEK293T cells; assay type: cell-based; set-up: expressed in transfected cells; host or cells: HEK293T (mixed with two other transfected populations); details: one mM Drofenine injected at 75 seconds, real time, mixed cell population
T1 sequence (Q8NET8 1-790): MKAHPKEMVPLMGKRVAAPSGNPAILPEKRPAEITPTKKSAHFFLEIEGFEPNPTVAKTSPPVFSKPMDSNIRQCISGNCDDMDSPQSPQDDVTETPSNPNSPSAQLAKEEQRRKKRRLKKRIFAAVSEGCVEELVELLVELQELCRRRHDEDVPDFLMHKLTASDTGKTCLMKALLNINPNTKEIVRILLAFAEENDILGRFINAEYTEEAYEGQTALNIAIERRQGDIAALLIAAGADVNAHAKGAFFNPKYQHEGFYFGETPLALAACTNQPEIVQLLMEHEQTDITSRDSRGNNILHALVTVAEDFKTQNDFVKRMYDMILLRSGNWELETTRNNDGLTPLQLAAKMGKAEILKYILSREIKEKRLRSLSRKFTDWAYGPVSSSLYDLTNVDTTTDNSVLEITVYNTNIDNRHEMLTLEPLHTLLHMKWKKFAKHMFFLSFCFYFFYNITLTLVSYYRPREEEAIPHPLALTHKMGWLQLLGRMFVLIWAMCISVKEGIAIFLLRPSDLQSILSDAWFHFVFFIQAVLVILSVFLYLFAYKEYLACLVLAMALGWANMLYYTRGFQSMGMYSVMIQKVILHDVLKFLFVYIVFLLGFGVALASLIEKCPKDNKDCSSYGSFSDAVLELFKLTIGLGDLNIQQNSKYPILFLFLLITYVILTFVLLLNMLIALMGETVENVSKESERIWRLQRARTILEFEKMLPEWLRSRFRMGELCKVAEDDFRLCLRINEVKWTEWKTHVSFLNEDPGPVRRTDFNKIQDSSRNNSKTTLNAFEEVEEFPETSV
From the text: (§1) FIG. 2: Multiplexing measurements of TRPV activity using multicolor BRET. (A) Example of a three-color BRET spectrum and its decomposition, measured in a coculture containing three HEK293T subpopulations transfected with aquamarine-Luc, mAmetrine-Luc, or LSSmOrange-Luc. The grey dots represent the experimental data. Black, light grey, medium grey, and grey solid lines represent the spectral components of Luc, aquamarine, mAmetrine, and LSSmOrange, respectively. […] Results represent the mean of three independent experiments.
(§2) Full BRET spectra were acquired using an optical fiber linked to a Spectra Pro 2300i spectrometer, equipped with a liquid-nitrogen-cooled CCD camera for recording the full visible spectrum (Acton Optics, Acton, Mass., USA). The bioluminescent signal was recorded from transfected cells seeded onto a glass coverslip and placed into a white opaque measurement chamber made of Teflon® and containing an isotonic solution (NaCl 145 mM, KCl 5 mM, KH2PO4 4 mM, CaCl2 1 mM, MgSO4 1 mM, Glucose 10 mM). The temperature of the cell buffer was regulated using an Eppendorf® ThermoStat Plus and measured in real time using a fiber-optic temperature measurement Luxtron 812 system (Lumasense technologies, Santa Clara, Calif., USA). […]

TRPV4 = TRPV4 (Homo sapiens, UniProt Q9HBA0); assay: Three-color spectral BRET, TRPV4-Luc/LSSmOrange-CaM component in mixed HEK293T cells; assay type: cell-based; set-up: expressed in transfected cells; host or cells: HEK293T (mixed with two other transfected populations); details: 100 nM GSK101 injected at 75 seconds, real time, mixed cell population
Chain of TRPV4 (Q9HBA0 whole entry): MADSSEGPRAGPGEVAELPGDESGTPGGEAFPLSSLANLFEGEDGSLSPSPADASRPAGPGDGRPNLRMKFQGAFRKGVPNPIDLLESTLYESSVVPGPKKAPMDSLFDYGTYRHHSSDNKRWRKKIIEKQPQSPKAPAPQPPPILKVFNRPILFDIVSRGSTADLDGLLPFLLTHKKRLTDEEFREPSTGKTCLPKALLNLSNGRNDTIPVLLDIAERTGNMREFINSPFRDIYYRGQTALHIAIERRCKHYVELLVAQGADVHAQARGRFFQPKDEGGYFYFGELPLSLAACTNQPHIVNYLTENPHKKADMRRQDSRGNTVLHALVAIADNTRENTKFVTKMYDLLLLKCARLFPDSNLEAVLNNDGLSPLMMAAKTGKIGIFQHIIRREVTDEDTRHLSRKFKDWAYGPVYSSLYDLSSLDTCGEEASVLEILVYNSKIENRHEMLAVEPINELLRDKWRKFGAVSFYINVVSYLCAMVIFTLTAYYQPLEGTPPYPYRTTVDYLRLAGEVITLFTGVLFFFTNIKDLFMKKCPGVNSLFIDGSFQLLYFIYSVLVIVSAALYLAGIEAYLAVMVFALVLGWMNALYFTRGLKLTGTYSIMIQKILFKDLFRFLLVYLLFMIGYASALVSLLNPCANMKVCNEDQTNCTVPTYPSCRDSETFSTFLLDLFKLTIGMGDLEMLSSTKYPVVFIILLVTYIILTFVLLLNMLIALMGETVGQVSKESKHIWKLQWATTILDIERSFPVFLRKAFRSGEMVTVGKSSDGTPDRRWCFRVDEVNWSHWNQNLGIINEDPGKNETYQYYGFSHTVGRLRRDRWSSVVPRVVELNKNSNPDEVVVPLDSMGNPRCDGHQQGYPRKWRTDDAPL
From the text: as §1, §2

SMILES: CCN(CC)CCOC(=O)C(c1ccccc1)C1CCCCC1 (centres unmarked) [Drofenine]
- TRPV3-related BRET component in three-color assay (TRPV3): increase in only the TRPV3-related BRET component

SMILES: CC(C)C[C@H](NC(=O)c1cc2ccccc2s1)C(=O)N1CCN(C(=O)[C@H](CO)NS(=O)(=O)c2ccc(Cl)cc2Cl)CC1 [GSK1016790A]
- TRPV4 BRET signal in three-color assay (TRPV4): time-dependent increase
